# Data published in patent US10738028B2, “Spiro three-membered ring, spiro five-membered ring peptide deformylase inhibitor and use thereof in antibacteria and anti-tumor” (priority 2016, dated 2020).
# Key:
# Assay type in all cases: cell-based
# [1] = test system: Enterococcus faecalis (EFA); test: MIC, two-fold agar dilution (CLSI), clinical isolates
# From the text: (§1) 1. The invention adopts the two-fold agar dilution method recommended by the operating procedure of antimicrobial susceptibility testing set by American Clinical and Laboratory Standards Institute (CLSI) to determine the Minimum Inhibitory Concentration (MIC) of the test samples against the tested strains.
# [2] = test system: Enterococcus faecium (EFM); test: as above
# From the text: as §1
# [3] = test system: Escherichia coli (including ESBLs, non-ESBLs); test: as above
# From the text: as §1
# [4] = test system: Moraxella catarrhalis (BCA); test: as above; conditions: for Anti-bacterial activity (MIC), strain BCA 14-10: clinical isolate BCA 14-10
# From the text: as §1
# [5] = test system: Streptococcus pneoumoniae (SPN); test: as above
# From the text: as §1
# [6] = test system: methicillin-resistant Staphylococcus aureus (MRSA); test: as above
# From the text: as §1
# [7] = test system: methicillin-resistant Staphylococcus epidermidis (MRSE); test: as above
# From the text: as §1
# [8] = test system: methicillin-sensitive Staphylococcus aureus (MSSA); test: as above
# From the text: as §1
# [9] = test system: methicillin-sensitive Staphylococcus epidermidis (MSSE); test: as above
# From the text: as §1
# [10] = test system: HCT-116 colorectal cancer cell line; test: CCK-8 proliferation inhibition; conditions: Homo sapiens, HCT-116, 72 h, concentration of 30 μM; 72 hours; CCK-8; read-out: HCT116 inhibition rate/%
# Outline: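 Growth inhibition is read by CCK-8 (1:10 dilution) after 72 h of compound exposure. HCT-116 cells grow in McCoy's 5A containing 10% newborn bovine serum at 2000 cells/well, with 1‰ DMSO as vehicle control.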
smiles,measurement,setting,value
"O=CN(O)C[C@@H](CC1CCCC1)C(=O)N1CC2(CC2)C[C@H]1C(=O)Nc1ccno1 [Example 37, (S)-5-((R)-3-cyclopentyl-2-((N-hydroxyformamido)methyl)propionyl)-N-(isoxazol-5-yl)-5-azaspiro[2.4]heptane-6-carboxamide]",MIC (anti-bacterial activity),[1]; strain EFA 15-1,4 µg/mL
same,MIC (anti-bacterial activity),[1]; strain EFA 15-2,4 µg/mL
same,MIC (anti-bacterial activity),[1]; strain EFA 15-3,4 µg/mL
same,MIC (anti-bacterial activity),[1]; strain EFA 15-4,4 µg/mL
same,MIC (anti-bacterial activity),[1]; strain EFA 15-5,4 µg/mL
same,MIC (anti-bacterial activity),[1]; strain EFA 15-6,4 µg/mL
same,MIC (anti-bacterial activity),[1]; strain EFA 15-9,4 µg/mL
same,MIC (anti-bacterial activity),[2]; strain EFM 15-1,2 µg/mL
same,MIC (anti-bacterial activity),[2]; strain EFM 15-2,2 µg/mL
same,MIC (anti-bacterial activity),[2]; strain EFM 15-3,2 µg/mL
same,MIC (anti-bacterial activity),[2]; strain EFM 15-4,2 µg/mL
same,MIC (anti-bacterial activity),[2]; strain EFM 15-5,1 µg/mL
same,MIC (anti-bacterial activity),[2]; strain EFM 15-6,2 µg/mL
same,MIC (anti-bacterial activity),[3]; strain ECO+ 15-1,32 µg/mL
same,MIC (anti-bacterial activity),[3]; strain ECO+ 15-2,32 µg/mL
same,MIC (anti-bacterial activity),[3]; strain ECO+ 15-3,32 µg/mL
same,MIC (anti-bacterial activity),[3]; strain ECO+ 15-4,32 µg/mL
same,MIC (anti-bacterial activity),[3]; strain ECO− 15-1,32 µg/mL
same,MIC (anti-bacterial activity),[3]; strain ECO− 15-2,32 µg/mL
same,MIC (anti-bacterial activity),[3]; strain ECO− 15-3,32 µg/mL
same,MIC (anti-bacterial activity),[3]; strain ECO− 15-4,32 µg/mL
same,"Anti-bacterial activity (MIC), strain BCA 14-10",[4],3 µg/mL
same,MIC (anti-bacterial activity),[4]; strain BCA 14-1,2 µg/mL
same,MIC (anti-bacterial activity),[4]; strain BCA 14-4,2 µg/mL
same,MIC (anti-bacterial activity),[4]; strain BCA 14-5,2 µg/mL
same,MIC (anti-bacterial activity),[4]; strain BCA 14-6,2 µg/mL
same,MIC (anti-bacterial activity),[4]; strain BCA 14-7,3 µg/mL
same,MIC (anti-bacterial activity),[4]; strain BCA 14-8,2 µg/mL
same,MIC (anti-bacterial activity),[5]; strain SPN 16-2,0.5 µg/mL
same,MIC (anti-bacterial activity),[5]; strain SPN 16-4,4 µg/mL
same,MIC (anti-bacterial activity),[6]; strain MRSA 15-1,0.5 µg/mL
same,MIC (anti-bacterial activity),[6]; strain MRSA 15-2,1 µg/mL
same,MIC (anti-bacterial activity),[6]; strain MRSA 15-3,0.5 µg/mL
same,MIC (anti-bacterial activity),[6]; strain MRSA 15-4,0.2 µg/mL
same,MIC (anti-bacterial activity),[7]; strain MRSE 15-1,0.5 µg/mL
same,MIC (anti-bacterial activity),[7]; strain MRSE 15-2,1 µg/mL
same,MIC (anti-bacterial activity),[7]; strain MRSE 15-3,1 µg/mL
same,MIC (anti-bacterial activity),[7]; strain MRSE 15-7,1 µg/mL
same,MIC (anti-bacterial activity),[8]; strain MSSA 15-3,1 µg/mL
same,MIC (anti-bacterial activity),[8]; strain MSSA 15-4,1 µg/mL
same,MIC (anti-bacterial activity),[8]; strain MSSA 15-5,0.5 µg/mL
same,MIC (anti-bacterial activity),[8]; strain MSSA 15-6,1 µg/mL
same,MIC (anti-bacterial activity),[9]; strain MSSE 15-3,1 µg/mL
same,MIC (anti-bacterial activity),[9]; strain MSSE 15-4,1 µg/mL
same,MIC (anti-bacterial activity),[9]; strain MSSE 15-5,1 µg/mL
same,MIC (anti-bacterial activity),[9]; strain MSSE 15-6,1 µg/mL
same,inhibition at 30 µM,[10],16%
Cc1cc(NC(=O)[C@@H]2CC3(CC3)CN2C(=O)[C@H](CC2CCCC2)CN(O)C=O)no1 [Example 39],MIC (anti-bacterial activity),[1]; strain EFA 15-1,4 µg/mL
same,MIC (anti-bacterial activity),[1]; strain EFA 15-2,4 µg/mL
same,MIC (anti-bacterial activity),[1]; strain EFA 15-3,1 µg/mL
same,MIC (anti-bacterial activity),[1]; strain EFA 15-4,4 µg/mL
same,MIC (anti-bacterial activity),[1]; strain EFA 15-5,4 µg/mL
same,MIC (anti-bacterial activity),[1]; strain EFA 15-6,4 µg/mL
same,MIC (anti-bacterial activity),[1]; strain EFA 15-9,4 µg/mL
same,MIC (anti-bacterial activity),[2]; strain EFM 15-1,1 µg/mL
same,MIC (anti-bacterial activity),[2]; strain EFM 15-2,1 µg/mL
same,MIC (anti-bacterial activity),[2]; strain EFM 15-3,0.5 µg/mL
same,MIC (anti-bacterial activity),[2]; strain EFM 15-4,1 µg/mL
same,MIC (anti-bacterial activity),[2]; strain EFM 15-5,1 µg/mL
same,MIC (anti-bacterial activity),[2]; strain EFM 15-6,1 µg/mL
same,MIC (anti-bacterial activity),[3]; strain ECO+ 15-1,16 µg/mL
same,MIC (anti-bacterial activity),[3]; strain ECO+ 15-2,32 µg/mL
same,MIC (anti-bacterial activity),[3]; strain ECO+ 15-3,32 µg/mL
same,MIC (anti-bacterial activity),[3]; strain ECO+ 15-4,16 µg/mL
same,MIC (anti-bacterial activity),[3]; strain ECO− 15-1,32 µg/mL
same,MIC (anti-bacterial activity),[3]; strain ECO− 15-2,32 µg/mL
same,MIC (anti-bacterial activity),[3]; strain ECO− 15-3,32 µg/mL
same,MIC (anti-bacterial activity),[3]; strain ECO− 15-4,32 µg/mL
same,"Anti-bacterial activity (MIC), strain BCA 14-10",[4],0.5 µg/mL
same,MIC (anti-bacterial activity),[4]; strain BCA 14-1,1 µg/mL
same,MIC (anti-bacterial activity),[4]; strain BCA 14-4,1 µg/mL
same,MIC (anti-bacterial activity),[4]; strain BCA 14-5,0.5 µg/mL
same,MIC (anti-bacterial activity),[4]; strain BCA 14-6,1 µg/mL
same,MIC (anti-bacterial activity),[4]; strain BCA 14-7,1 µg/mL
same,MIC (anti-bacterial activity),[4]; strain BCA 14-8,1 µg/mL
same,MIC (anti-bacterial activity),[5]; strain SPN 16-2,0.5 µg/mL
same,MIC (anti-bacterial activity),[5]; strain SPN 16-4,4 µg/mL
same,MIC (anti-bacterial activity),[6]; strain MRSA 15-1,1 µg/mL
same,MIC (anti-bacterial activity),[6]; strain MRSA 15-2,1 µg/mL
same,MIC (anti-bacterial activity),[6]; strain MRSA 15-3,1 µg/mL
same,MIC (anti-bacterial activity),[6]; strain MRSA 15-4,1 µg/mL
same,MIC (anti-bacterial activity),[7]; strain MRSE 15-1,1 µg/mL
same,MIC (anti-bacterial activity),[7]; strain MRSE 15-2,1 µg/mL
same,MIC (anti-bacterial activity),[7]; strain MRSE 15-3,1 µg/mL
same,MIC (anti-bacterial activity),[7]; strain MRSE 15-7,1 µg/mL
same,MIC (anti-bacterial activity),[8]; strain MSSA 15-3,1 µg/mL
same,MIC (anti-bacterial activity),[8]; strain MSSA 15-4,1 µg/mL
same,MIC (anti-bacterial activity),[8]; strain MSSA 15-5,1 µg/mL
same,MIC (anti-bacterial activity),[8]; strain MSSA 15-6,1 µg/mL
same,MIC (anti-bacterial activity),[9]; strain MSSE 15-3,1 µg/mL
same,MIC (anti-bacterial activity),[9]; strain MSSE 15-4,1 µg/mL
same,MIC (anti-bacterial activity),[9]; strain MSSE 15-5,1 µg/mL
same,MIC (anti-bacterial activity),[9]; strain MSSE 15-6,1 µg/mL
same,inhibition at 30 µM,[10],-10%
